# Assay results from patent US11291669B2, “Compositions comprising phosphoinositide 3-kinase inhibitors and a second antiproliferative agent” (Karus Therapeutics Limited, priority 2015, dated 2022).
# Read-outs that look alike come from different tables or passages of the source.
# Key:
# [1] = Rodent pharmacokinetics, male Balb/c mouse, plasma PK; type: in vivo; conditions: for Oral Bioavailability (F): summary table, PO 10 mg/kg
# Description: Animals in Group 1 were administered intravenously with Example B solution formulation in 20% Propylene Glycol, 50% of PEG 400 and 30% of (20% HPβCD in water) via tail vein at a dose of 3 mg/kg.
# Animals in Group 2 were administered with oral solution formulation of Example B in 20% Propylene Glycol, 50% of PEG 400 and 30% of (20% HPβCD in water) at a dose of 10 mg/kg;
# Dosing: 10 mg/kg P.O. and 3 mg/kg I.V.
# Animals in Group 1 were administered intravenously with Example G solution formulation in 5% NMP, 5% solutol HS-15 in 90% HPIβCD solution (20% HPβCD in RO water) at 3 mg/kg dose.
# Animals in Group 2 were administered orally with 10 mg/kg solution formulation of Example G in 5% NMP, 5% solutol HS-15 in 90% HPβCD solution (20% HPβCD in RO water)
# [2] = Rodent pharmacokinetics, male CD1 mouse, plasma PK; type: in vivo; conditions: PO 10 mg/kg vs IV 5 mg/kg, read-out: F (oral bioavailability)
# Description: Formulation: 10% DMSO, 90% Saline Dosing: 10 mg/kg P.O. and 5 mg/kg I.V. Plasma PK Summary: […]
compound,measurement,setting,value
"c1cc(-c2nc(N3CCOCC3)c3oc4ncc(CN5CCC6(CC5)COC6)cc4c3n2)c2cc[nH]c2c1 [Example B, 4-(1H-Indol-4-yl)-6-(morpholin-4-yl)-12-{2-oxa-7-azaspiro[3.5]nonan-7-ylmethyl}-8-oxa-3,5,10-triazatricyclo[7.4.0.0^2,7]trideca-1(13),2(7),3,5,9,11-hexaene]",Clearance,"[1]; IV, 3 mg/kg, mesylate salt",33.06 mL/min/kg
same,Oral Bioavailability (F),[1],74
"c1cc(-c2nc(N3CCOCC3)c3oc4ncc(CN5C[C@@H]6C[C@H]5CO6)cc4c3n2)c2cc[nH]c2c1 [Example A, 4-(1H-Indol-4-yl)-6-(morpholin-4-yl)-12-[(1S,4S)-2-oxa-5-azabicyclo[2.2.1]heptan-5-ylmethyl]-8-oxa-3,5,10-triazatricyclo[7.4.0.0^2,7]trideca-1(13),2(7),3,5,9,11-hexaene]",bioavailability,[2]; mesylate salt,73.8%
"c1cc(-c2nc(N3CCOCC3)c3oc4ncc(CN5CCC56COC6)cc4c3n2)c2cc[nH]c2c1 [Example G, 4-(1H-indol-4-yl)-6-(morpholin-4-yl)-12-{6-oxa-1-azaspiro[3.3]heptan-1-ylmethyl}-8-oxa-3,5,10-triazatricyclo[7.4.0.0^2,7]trideca-1(13), 2(7), 3,5,9,11-hexaene]",Oral Bioavailability (F),[1],30
"c1cc(-c2nc(N3CCOCC3)c3oc4ncc(CN5CCCCC5)cc4c3n2)c2cc[nH]c2c1 [Example I in WO2011/021038, reference compound]",bioavailability,[2]; HCl salt,29.6%
